In US6939882B1 (priority 1999, dated 2005):

Assays:
Phytophthora infestans = format: in vivo; conditions: concentration of 500 ppm (w/v) or less, spray or stem base drench
Plasmopara viticola = conditions: in vivo; also: key: 1 is little or no control; 2 is moderate control; 3 is good to total control
Pyricularia oryzae = format: in vivo; conditions: concentration of 500 ppm (w/v) or less, spray or stem base drench
Leptosphaeria nodorum = conditions: in vivo; also: key: 1 is little or no control; 2 is moderate control; 3 is good to total control

SMILES | score of disease control (degree of infection visually estimated) (Plasmopara viticola) | score of disease control (degree of infection visually estimated) (Pyricularia oryzae) | also measured
Cc1ccc(CNC(=O)c2ncc(C(F)(F)F)cc2Cl)cc1 [Compound 215] | 2 |  | score of disease control (degree of infection visually estimated) (Phytophthora infestans): 2
CCC(=NOc1ncc(C(F)(F)F)cc1Cl)c1ccccc1 [Compound 922] |  | 2 | 
N#CC(=NOc1ncc(C(F)(F)F)cc1Cl)c1ccccc1C#N [Compound 939] |  | 2 | 
CC(NCc1ncc(C(F)(F)F)cc1Cl)c1ccc(F)c(F)c1 (stereo not drawn) [Compound 23, N-{[3-Chloro-5-(trifluoromethyl)-2-pyridyl]methyl}-N-[1-(3,4-difluorophenyl)-ethyl]amine] |  |  | score of disease control (degree of infection visually estimated) (Leptosphaeria nodorum): 2
COc1ccc(C=NOc2ncc(C(F)(F)F)cc2Cl)cc1 [Compound 914] | 2 |  | 
CN1C(=O)C(=NOc2ncc(C(F)(F)F)cc2Cl)c2ccccc21 [Compound 1109] |  |  | score of disease control (degree of infection visually estimated) (Leptosphaeria nodorum): 2
Cc1cnc(C(=O)NOc2ncc(C(F)(F)F)cc2Cl)cn1 [Compound 1001] | 2 | 2 | 
FC(F)(F)c1cnc(ON=Cc2cccc3ccccc23)c(Cl)c1 [Compound 933] |  |  | score of disease control (degree of infection visually estimated) (Leptosphaeria nodorum): 2
O=C(NNc1ncc(C(F)(F)F)cc1Cl)c1c(Cl)cccc1Cl [Compound 102] | 2 |  | score of disease control (degree of infection visually estimated) (Phytophthora infestans): 2
CCOC(=O)C(c1ncc(C(F)(F)F)cc1Cl)N(Cc1ccccc1Cl)C(=O)C(=O)OC (stereo not drawn) [Compound 9] | 2 | 2 | 
CCOC(=O)C(c1ncc(C(F)(F)F)cc1Cl)N(Cc1ccccc1Cl)C(C)=O (stereo not drawn) [Compound 7] | 2 | 2 | 
COc1ccc(OC)c(CNCc2ncc(C(F)(F)F)cc2Cl)c1 [Compound 49] |  |  | score of disease control (degree of infection visually estimated) (Phytophthora infestans): 2
FC(F)(F)c1cnc(ON=Cc2ccncc2)c(Cl)c1 [Compound 902] |  |  | score of disease control (degree of infection visually estimated) (Phytophthora infestans): 2
N#CC(=NOc1ncc(C(F)(F)F)cc1Cl)c1c(Cl)cccc1Cl (single isomer, unassigned) [Compound 938] |  | 2 | 
CC(=NOc1ncc(C(F)(F)F)cc1Cl)c1cccs1 [Compound 913] |  | 2 | 
FC(F)(F)c1cnc(ON=Cc2ccccc2Cl)c(Cl)c1 [Compound 929] |  |  | score of disease control (degree of infection visually estimated) (Leptosphaeria nodorum): 2
CC(=NOc1ncc(C(F)(F)F)cc1Cl)c1ccccc1Cl [Compound 901] | 2 | 2 | 
COc1ccc2c(c1)C(=NOc1ncc(C(F)(F)F)cc1Cl)CCC2 [Compound 1102] |  |  | score of disease control (degree of infection visually estimated) (Phytophthora infestans): 2
CC(NC(=O)c1ncc(C(F)(F)F)cc1Cl)c1ccc(Br)cc1 (stereo not drawn) [Compound 208] |  |  | score of disease control (degree of infection visually estimated) (Leptosphaeria nodorum): 2
CN(NC(=O)c1c(Cl)cccc1Cl)c1ncc(C(F)(F)F)cc1Cl [Compound 109] | 2 |  | 
CC(NCc1ncc(C(F)(F)F)cc1Cl)c1ccccc1Cl (stereo not drawn) [Compound 17] |  | 2 | 

SMILES | score of disease control (degree of infection visually estimated) (Plasmopara viticola) | score of disease control (degree of infection visually estimated) (Pyricularia oryzae) | also measured
CC(C)(C)C(=NOc1ncc(C(F)(F)F)cc1Cl)c1ccccn1 [Compound 912] |  |  | score of disease control (degree of infection visually estimated) (Phytophthora infestans): 2
N#CC(=NOc1ncc(C(F)(F)F)cc1Cl)c1c(Cl)cccc1Cl (single isomer, unassigned) [Compound 937] |  | 2 | 
O=C(NNc1ncc(C(F)(F)F)cc1Cl)c1c(F)cccc1Cl [Compound 126] | 2 | 2 | score of disease control (degree of infection visually estimated) (Leptosphaeria nodorum): 2; score of disease control (degree of infection visually estimated) (Phytophthora infestans): 2
CC1CCc2ccccc2C1=NOc1ncc(C(F)(F)F)cc1Cl (stereo not drawn) [Compound 1101, 2-Methyl-1,2,3,4-tetrahydro-1-naphthalenone O-1-[3-chloror-5-(trifluoromethyl)-2-pyridyl]oxime] |  |  | score of disease control (degree of infection visually estimated) (Phytophthora infestans): 2
O=C(NOc1ncc(C(F)(F)F)cc1Cl)c1ccccc1Cl [Compound 1013] | 2 |  | 
COc1ccccc1C=NOc1ncc(C(F)(F)F)cc1Cl [Compound 921] | 2 |  | 
CCOC(=O)C(c1ncc(C(F)(F)F)cc1Cl)N(Cc1ccc2c(c1)OCO2)C(=O)C(=O)OC (stereo not drawn) [Compound 12] | 2 |  | 
CC(NC(=O)c1ncc(C(F)(F)F)cc1Cl)c1c(F)cccc1F (stereo not drawn) [Compound 202] |  |  | score of disease control (degree of infection visually estimated) (Phytophthora infestans): 2
Cc1nc(C)c(C(=O)NOc2ncc(C(F)(F)F)cc2Cl)s1 [Compound 1007] |  |  | score of disease control (degree of infection visually estimated) (Leptosphaeria nodorum): 2
CC(=NOc1ncc(C(F)(F)F)cc1Cl)c1cccn1C [Compound 906] |  | 2 | score of disease control (degree of infection visually estimated) (Leptosphaeria nodorum): 2
CC(=NOc1ncc(C(F)(F)F)cc1Cl)c1ccc(C)cc1C [Compound 915] | 2 |  | 
O=C(C=Cc1ncc(C(F)(F)F)cc1Cl)c1ccccc1[N+](=O)[O-] [Compound 601, 3-[3-Chloro-5-(trifluoromethyl)-2-pyridyl]-1-(2-nitrophenyl)-2-propen-1-one] | 2 |  | score of disease control (degree of infection visually estimated) (Phytophthora infestans): 2
CC(=NOc1ncc(C(F)(F)F)cc1Cl)c1ccccc1 [Compound 927] |  |  | score of disease control (degree of infection visually estimated) (Phytophthora infestans): 2
O=[N+]([O-])c1ccc(CNCc2ncc(C(F)(F)F)cc2Cl)cc1 [Compound 51] |  |  | score of disease control (degree of infection visually estimated) (Leptosphaeria nodorum): 2
CC(NC(=O)c1ncc(C(F)(F)F)cc1Cl)c1ccc(Cl)cc1 (stereo not drawn) [Compound 207] |  |  | score of disease control (degree of infection visually estimated) (Leptosphaeria nodorum): 2
FC(F)(F)c1cnc(ON=C(c2ccc(Cl)cc2)c2ccc(Cl)cc2)c(Cl)c1 [Compound 958] | 2 |  | 
N#CC(=NOc1ncc(C(F)(F)F)cc1Cl)c1ccccc1 [Compound 926] |  |  | score of disease control (degree of infection visually estimated) (Leptosphaeria nodorum): 2
CC(=NOc1ncc(C(F)(F)F)cc1Cl)c1ccccc1C [Compound 907] | 2 | 2 | 
O=[N+]([O-])c1cccc(C=NOc2ncc(C(F)(F)F)cc2Cl)c1 [Compound 923] |  | 2 | score of disease control (degree of infection visually estimated) (Leptosphaeria nodorum): 2
CCC(=NOc1ncc(C(F)(F)F)cc1Cl)c1ccc(Cl)cc1Cl [Compound 953] |  |  | score of disease control (degree of infection visually estimated) (Phytophthora infestans): 2
